This is an account of results in PubChem BioAssay AID1259418 (Broad Institute, 2018).

SMILES strings stand for the structures. Where “and” joins values, the source holds several entries; their conditions need not be identical. Equal values may be shown once. Records with an inconclusive call do not appear. Calls of active or inactive are those of the source.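 Rule for the calls: active = fitted half-maximal concentration of signal decrease at or below twice the sample's top tested concentration; inconclusive = flat curve between -70 and -30 percent, or poor fit; inactive = flat within 30 percent, signal rise, or potency above limit.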 Starred links: 1 amine or outer side, 2 acyl side, 3 side chain; linkers in the order of their positions; H or OH if unused. Positions of bridges follow the written chain, without caps; N, C: chain ends. Non-standard residues stand in square brackets, D forms with d. Residues, ends and D or L forms follow the SMILES beside them. ξ: configuration not given here. *: point of attachment. pTerphenylCO(4''-OnC5H11) = CCCCCOc1ccc(-c2ccc(-c3ccc(C(=O)*)cc3)cc2)cc1; ξOrn(4,5-diOH) = O=C(C(CC(O)C(O)N[*:3])N[*:1])[*:2]; ξhTyr(βξ-OH,γξ-OH) = NC(C(=O)O)C(O)C(O)c1ccc(O)cc1; ξPro(3ξ-OH,4ξ-Me) = CC1CNC(C(=O)O)C1O; Hyp = O=C(O)[CH]1C[CH](O)CN1

The target of this test is T. gondii ME49Luc in IFN-y HeLa, luciferase, 72 h. Nature of the test: inhibitors of Toxoplasma growth in IFN-γ-primed HeLa – cell-based, ME49Luc, luciferase, 72 h, dose response (AID 1259418).
Regarding `Cc1ccccc1S(=O)(=O)N1C[C@@H]2N[C@H](C1)C2c1ccc(/C=C/c2ccccc2)cc1` (stereo not given in full), the AC50 – broadly, the midpoint of the concentration-response curve, whichever way the signal moves – was 9.34 µM. Regarding `CC(C)Cc1ccc(S(=O)(=O)N2CCC3(CC2)NCCN=C3NCc2cccc(F)c2)cc1`, the AC50 is 5.25 µM. As for `CCc1ccc(S(=O)(=O)N2CCC3(CC2)NCCN=C3NCc2cccc(F)c2)cc1`, the half-maximal activity concentration (AC50) is 16.3 µM. For `O=S(=O)(c1cccs1)N1CCCCN2[C@H](CO)[C@H](c3ccc(/C=C/c4ccccc4)cc3)[C@@H]2C1`, the AC50 is 18.8 µM.

Regarding `CC(C)c1cc(C2CCCN2Cc2c[nH]c3ccccc23)on1` (stereo not given), the AC50 was 7.79 µM and 14 µM.

As to `COc1ccc(Cc2nnc(NC(=O)CC(C)C)s2)cc1`, the AC50 is 11.3 µM. Regarding `O=C(Cc1ccc(Cl)cc1)N1CC2(CCN(Cc3ccc(C(F)(F)F)cc3)CC2)C1`, the AC50 is 22.2 µM. To `COc1ccccc1NC(=O)N1CCCCN2[C@H](C1)[C@@H](c1ccc(-c3cccc(C#N)c3)cc1)[C@@H]2CO` belongs 21.1 µM; to `COc1cccc(N(Cc2nc(-c3cccc(C)c3)oc2C)S(=O)(=O)c2ccc(C)cc2)c1`, 4.46 µM. For `COc1ccc(-c2ccc3c(c2)[C@H]2[C@H](CCN2C(=O)c2cccc(F)c2)[C@H](CO)N3)cc1`, the AC50 was 16 µM.

`COc1ccc(-c2nc(CN(c3cccc(OC)c3)S(=O)(=O)c3ccc(C)cc3)c(C)o2)cc1`: the half-maximal activity concentration (AC50) was 8.49 µM. Take `Fc1ccc(Nc2nc(SCc3ccccc3Cl)nc3ccccc23)cc1F`: the AC50 was 11.3 µM.

Regarding `COc1ccc(-c2nc(Cn3nnc(-c4nc(-c5ccc(OC)c(OC)c5)no4)c3C)c(C)o2)cc1`, the half-maximal activity concentration (AC50) is 20.6 µM. To `Cc1c(Cl)cccc1NC(=O)CN1CCC2(CC1)N=C(c1cccc(F)c1)C(=O)N2` belongs > 39 µM (inactive); to `COc1ccc(-c2nc(NCCCN3CCN(c4ccccc4)CC3)c3ccccc3n2)cc1`, 29.8 µM. Regarding `Cc1ccc(-c2nc(CN(c3ccccc3)S(=O)(=O)c3ccccc3)c(C)o2)cc1`, the AC50 is 10.3 µM.

Consider `O=C(CC1N=C2c3ccccc3N=C(SCc3ccccc3Cl)N2C1=O)NCc1ccco1` (stereo not given), for which the AC50 is > 39 µM (inactive). To `O=C1CNC[C@H]2[C@@H](c3ccc(C#Cc4cccnc4)cc3)[C@@H](CO)N12` belongs 26.8 µM; to `CCOc1ccc(-c2nc(CN3CCN(C(=O)Nc4ccc(Cl)cc4)CC3)c(C)o2)cc1`, 5.17 µM; to `CCOc1ccccc1N(Cc1nc(-c2ccc(C)cc2)oc1C)S(=O)(=O)c1cccs1`, 9.38 µM.

As for `N#C[C@@H]1[C@@H](c2ccc(C3=CCCCC3)cc2)[C@@H](CO)N1S(=O)(=O)c1ccccc1`, the AC50 was > 39 µM (inactive) and 5.52 µM. Turning to `Cc1ccc(S(=O)(=O)N2CCC3(CC2)NCCN=C3NC2CCCCCC2)c(C)c1`, the AC50 is 14.2 µM. For `CCCCCOc1ccc(-c2ccc(-c3ccc(C(=O)NC4CC(O)C(O)NC(=O)C5C(O)C(C)CN5C(=O)C(C(C)O)NC(=O)C(C(O)C(O)c5ccc(O)cc5)NC(=O)C5CC(O)CN5C(=O)C(C(C)O)NC4=O)cc3)cc2)cc1` (stereo not drawn) ({pTerphenylCO(4''-OnC5H11)}-[ξOrn(4,5-diOH)]T[Hyp][ξhTyr(βξ-OH,γξ-OH)]T[ξPro(3ξ-OH,4ξ-Me)]; lactam 1-C; configuration not given here), the AC50 is 25 µM. The result for `COc1ccc(N(Cc2nc(-c3ccccc3)oc2C)S(=O)(=O)c2ccccc2C)cc1` reads 11.6 µM; that for `CCOc1ccc(-c2nc(CN(c3ccc(OCC)cc3)S(=O)(=O)c3ccccc3)c(C)o2)cc1`, 17.1 µM; that for `CCOC(=O)c1ccc(NC(=O)N2CCN(Cc3nc(-c4ccc(C)cc4)oc3C)CC2)cc1`, 37.2 µM.

For the molecule `O=C(CCC1N=C2c3ccccc3N=C(SCc3ccc(Cl)cc3)N2C1=O)NCc1cccs1` (stereo not given), the AC50 is 14.9 µM. To `Cc1ccccc1S(=O)(=O)N1CC[C@@H]2[C@H]1c1cc(-c3cccc(F)c3)ccc1N(C)[C@H]2CO` belongs 17.7 µM.

`O=C1CCc2cc(S(=O)(=O)NC(c3ccccc3)c3ccccc3)cc3c2N1CCC3`: the AC50 was 12.8 µM. The result for `COc1ccc(-c2ccc3c(c2)[C@@H]2[C@@H](CCN2C(=O)c2cccc(F)c2)[C@H](CO)N3)cc1` reads 26.9 µM.
